Source: patent US7691901B2, “Carotenoid analogs or derivatives for the inhibition and amelioration of inflammation” (Cardax Pharmaceuticals Inc., priority 2004, dated 2010)
Blank lines part the entries; values can stand above or below the compound they belong to.

Key:
[1] = target: human serum albumin (HSA) (Homo sapiens, UniProt P02768); experiment: Plasma-protein binding studies in vitro
[2] = type: physicochemical
Method: Determination of aqueous solubility/dispersibility. 30.13 mg of 3 was added to 1 mL of USP-purified water. The sample was rotated for 2 hours, then centrifuged for 5 minutes. […] A 125-μL aliquot of the solution was then diluted to 25 mL. The sample was analyzed by UV/Vis spectroscopy at 436 nm, and the absorbance was compared to a standard curve compiled from 4 standards of known concentration.
The sample was rotated for 2 hours, then centrifuged for 5 minutes. […] A 125-μL aliquot of the solution was then diluted to 25 mL. The sample was analyzed by UV/Vis spectroscopy at 411 nm, and the absorbance was compared to a standard curve compiled from 4 standards of known concentration.

[3] = test system: superoxide anion; experiment: Direct superoxide anion scavenging by EPR spectroscopy (DEPMPO spin-trap) in PMA-stimulated isolated human neutrophils; type: cell-based
Method: Leukocyte Isolation and Preparation. Human polymorphonuclear leukocytes (PMNs) were isolated from freshly sampled venous blood of a single volunteer by Percoll density gradient centrifugation as described previously. Briefly, each 10 mL of whole blood was mixed with 0.8 mL of 0.1 M EDTA and 25 mL of saline. The diluted blood was then layered over 9 mL of Percoll at a specific density of 1.080 g/mL. After centrifugation at 400×g for 20 min at 20° C., the plasma, mononuclear cell, and Percoll layers were removed. Erythrocytes were subsequently lysed by addition of 18 mL of ice-cold water for 30 s, followed by 2 mL of 10× PIPES buffer (25 mM PIPES, 110 mM NaCl, and 5 mM KCl, titrated to pH 7.4 with NaOH). Cells were then pelleted at 4° C., the supernatant was decanted, and the procedure was repeated. After the second hypotonic cell lysis, cells were washed twice with PAG buffer [PIPES buffer containing 0.003% human serum albumin (HSA) and 0.1% glucose]. Afterward, PMNs were counted by light microscopy on a hemocytometer. The isolation yielded PMNs with a purity of >95%. The final pellet was then suspended in PAG-CM buffer (PAG buffer with 1 mM CaCl2 and 1 mM MgCl2). EPR Measurements. All EPR measurements were performed using a Bruker ER 300 EPR spectrometer operating at X-band with a TM110 cavity as previously described. The microwave frequency was measured with a Model 575 microwave counter (EIP Microwave, Inc., San Jose, Calif.). To measure superoxide anion (O2) generation from phorbol-ester (PMA)-stimulated PMNs, EPR spin-trapping studies were performed using the spin trap DEPMPO (Oxis, Portland, Oreg.) at 10 mM. 1×10^6 PMNs were stimulated with PMA (1 ng/mL) and loaded into capillary tubes for EPR measurements. To determine the radical scavenging ability of 3 and 9 in aqueous and ethanolic formulations, PMNs were pre-incubated for 5 minutes with test compound, followed by PMA stimulation.
Instrument settings used in the spin-trapping experiments were as follows: modulation amplitude, 0.32 G; time constant, 0.16 s; scan time, 60 s; modulation frequency, 100 kHz; microwave power, 20 milliwatts; and microwave frequency, 9.76 GHz. The samples were placed in a quartz EPR flat cell, and spectra were recorded. The component signals in the spectra were identified and quantified as reported previously.

Sequence of human serum albumin (HSA) (P02768 25-609): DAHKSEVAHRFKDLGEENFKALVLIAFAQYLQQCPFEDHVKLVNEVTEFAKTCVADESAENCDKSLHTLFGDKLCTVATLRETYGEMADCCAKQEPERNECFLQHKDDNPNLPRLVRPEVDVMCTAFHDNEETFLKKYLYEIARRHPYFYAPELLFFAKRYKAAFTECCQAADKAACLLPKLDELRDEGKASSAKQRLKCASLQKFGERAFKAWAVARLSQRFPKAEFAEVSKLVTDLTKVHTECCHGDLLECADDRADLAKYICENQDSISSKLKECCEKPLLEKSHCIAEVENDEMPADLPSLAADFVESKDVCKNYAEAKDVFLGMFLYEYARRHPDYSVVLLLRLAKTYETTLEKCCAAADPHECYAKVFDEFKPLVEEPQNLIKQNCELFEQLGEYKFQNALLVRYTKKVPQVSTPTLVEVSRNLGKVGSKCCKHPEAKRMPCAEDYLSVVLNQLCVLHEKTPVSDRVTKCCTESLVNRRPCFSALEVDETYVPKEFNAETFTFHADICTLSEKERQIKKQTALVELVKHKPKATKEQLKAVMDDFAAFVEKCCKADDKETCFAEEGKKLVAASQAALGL

Compound: CC(C=CC=C(C)C=CC1=C(C)C(=O)C(OC(=O)CCC(=O)[O-])CC1(C)C)=CC=CC=C(C)C=CC=C(C)C=CC1=C(C)C(=O)C(OC(=O)CCC(=O)[O-])CC1(C)C.[Na+].[Na+] [meso-(3R,3′S)-disodium disuccinate astaxanthin]
binding to human serum albumin [1]: bound immediately and preferentially to human serum albumin (HSA)

Compound: 3,3′-Diphosphoryloxy-β,ε-carotene sodium salt [compound 9]
increase in dispersibility of diphosphate salt over disuccinate sodium salt [2]: > 10 fold
Mean (% inhibition) of superoxide anion signal ([3]; 0.1 mM, 40% EtOH (EtOH vehicle alone 5%), listed as Lutein Diphosphate Sodium Salt, sodium salt): 18.0%
Mean (% inhibition) of superoxide anion signal ([3]; 0.1 mM, 40% EtOH (EtOH vehicle alone 5%), listed as disodium diphosphate derivative of natural source lutein, sodium salt): 18%
Mean (% inhibition) of superoxide anion signal ([3]; 0.1 mM, Water, listed as disodium diphosphate derivative of natural source lutein, sodium salt): 0%
Mean (% inhibition) of superoxide anion signal ([3]; 1.0 mM, Water): 9.3%
Mean (% inhibition) of superoxide anion signal ([3]; 3.0 mM, Water): 72.3%
Mean (% inhibition) of superoxide anion signal ([3]; 5.0 mM, Water, listed as Lutein Diphosphate Sodium Salt, sodium salt): 91.0%
Mean (% inhibition) of superoxide anion signal ([3]; 5.0 mM, Water, listed as disodium diphosphate derivative of natural source lutein, sodium salt): more than 90%

water solubility [2]: insoluble in water
Compound: CC1=C(/C=C/C(C)=C/C=C/C(C)=C/C=C/C=C(C)/C=C/C=C(C)/C=C/C2=C(C)C(=O)[C@@H](O)CC2(C)C)C(C)(C)C[C@H](O)C1=O [astaxanthin, reference compound]

Compound: β,ε-carotenyl 3,3′-disuccinate sodium salt [compound 3]
Aqueous dispersibility (concentration of supernatant) ([2]; 2 h): 2.85 mg/mL
Mean (% inhibition) of superoxide anion signal ([3]; 0.1 mM, 40% EtOH (EtOH vehicle alone 5%), listed as Lutein Disuccinate Sodium Salt, sodium salt): 5.0%
Mean (% inhibition) of superoxide anion signal ([3]; 0.1 mM, 40% EtOH (EtOH vehicle alone 5%), listed as disodium disuccinate derivative of natural source lutein, sodium salt): did not significantly increase scavenging
Mean (% inhibition) of superoxide anion signal ([3]; 0.1 mM, Water): 0%
Mean (% inhibition) of superoxide anion signal ([3]; 1.0 mM, Water): 13.0%
Mean (% inhibition) of superoxide anion signal ([3]; 3.0 mM, Water): 61.7%
Mean (% inhibition) of superoxide anion signal ([3]; 5.0 mM, Water, listed as Lutein Disuccinate Sodium Salt, sodium salt): 74.7%
Mean (% inhibition) of superoxide anion signal ([3]; 5.0 mM, Water, listed as disodium disuccinate derivative of natural source lutein, sodium salt): ~75%
Mean (% inhibition) of superoxide anion signal ([3]; 5.0 mM, Water, listed as disuccinate lutein sodium salt, sodium salt): 75%
